Results: ChEMBL document CHEMBL3885861, “Open TG-GATES”

Species on record: Rattus norvegicus
Test: Open TG-GATES - Regimen: Daily Repeat
Assay type: toxicity, organism-based, Sprague-Dawley
Design: regimen Daily Repeat, gender Male, age 6 weeks
Details: in vivo, po, route gavage; for TBIL / TC / TG / TP / gamma-GTP / ALP / ALT / AST / BUN / CRE / Ca / Cl / DBIL / K / LDH / Na / PL / RALB / IP: tissue Plasma; for APTT / Bas / Eos / Fbg / Hb / Ht / Lym / MCH / MCHC / MCV / PT / Plat / RBC / Ret / WBC / Mono / Neu: tissue Blood; for LIVER: tissue Liver
[1] = 1 mg/kg, […], dose level Low, time 28 day
[2] = 3 mg/kg, 72 h, dose level Middle, time 3 day
[3] = 3 mg/kg, 72 h, tissue Kidney, dose level Middle, time 3 day
[4] = 3 mg/kg, […], dose level Middle, time 14 day
[5] = 3 mg/kg, […], dose level Middle, time 28 day
[6] = 3 mg/kg, […], tissue Kidney, dose level Middle, time 14 day
[7] = 3 mg/kg, […], tissue Kidney, dose level Middle, time 28 day
[8] = 10 mg/kg, 72 h, dose level High, time 3 day
[9] = 10 mg/kg, 72 h, tissue Kidney, dose level High, time 3 day
[10] = 10 mg/kg, […], dose level High, time 14 day
[11] = 10 mg/kg, […], dose level High, time 28 day
[12] = 10 mg/kg, […], tissue Kidney, dose level High, time 14 day
[13] = 10 mg/kg, […], tissue Kidney, dose level High, time 28 day

## C#C[C@]1(O)CC[C@H]2[C@@H]3CCc4cc(O)ccc4[C@H]3CC[C@@]21C [ETHINYL ESTRADIOL]
[1]
  TBIL: 0.1 mg/dL
  TC: 50.6 mg/dL
  TG: 82 mg/dL
  TP: 6.8 g/dL
  gamma-GTP: 3.2 IU/L
[2]
  TERMINAL_BW: 201.7 g
  APTT: 22.6 s
  Bas: 0%
  Eos: 1%
  Fbg: 302.4 mg/dL
  Hb: 13.7 g/dL
  Ht: 40.3%
  Lym: 76.4%
  MCH: 20.9 pg
  MCHC: 34.1%
  MCV: 61.5 fL
  PT: 13.5 s
  Plat: 106.8 x10_4/uL
  RBC: 656.8 x10_4/ul
  Ret: 4.4%
  WBC: 75.4 x10_2/uL
  LIVER: 12.6 g
  ALP: 2898.2 IU/L
  ALT: 40.8 IU/L
  AST: 66.2 IU/L
  BUN: 9.8 mg/dL
  CRE: 0.2 mg/dL
  Ca: 10.5 mg/dL
  Cl: 108.2 meq/L
  DBIL: 0.038 mg/dL
  K: 4 meq/L
  LDH: 77.8 IU/L
  Na: 143.6 meq/L
  PL: 74.8 mg/dL
  RALB: 2.6 g/dL
  TBIL: 0.07 mg/dL
  TC: 24.8 mg/dL
  TG: 55.6 mg/dL
  TP: 5.6 g/dL
[3]
  KIDNEY_L: 0.9 g
  KIDNEY_R: 1 g
[4]
  TERMINAL_BW: 223.6 g
  APTT: 19.5 s
  Bas: 0%
  Eos: 1%
  Fbg: 316.6 mg/dL
  Ht: 37.1%
  Lym: 76.2%
  MCH: 20.2 pg
  MCHC: 36%
  MCV: 56.2 fL
  Mono: 2.2%
  Neu: 20%
  PT: 13.6 s
  Plat: 149.1 x10_4/uL
  RBC: 659.8 x10_4/ul
  Ret: 2.4%
  WBC: 96.9 x10_2/uL
  LIVER: 15.2 g
  ALP: 2422.2 IU/L
  ALT: 39.2 IU/L
  AST: 55.4 IU/L
  BUN: 16.4 mg/dL
  CRE: 0.3 mg/dL
  Cl: 105.4 meq/L
  DBIL: 0.088 mg/dL
  IP: 6.2 mg/dL
  LDH: 88.2 IU/L
  Na: 143.8 meq/L
  PL: 126.8 mg/dL
  RALB: 3 g/dL
  TBIL: 0.2 mg/dL
  TC: 40.6 mg/dL
  TG: 76.4 mg/dL
  TP: 6.8 g/dL
  gamma-GTP: 4.4 IU/L
[5]
  TERMINAL_BW: 227.7 g
  APTT: 24.1 s
  Bas: 0%
  Fbg: 301 mg/dL
  Ht: 37.2%
  Lym: 77.6%
  MCH: 18.7 pg
  MCHC: 36.1%
  MCV: 51.7 fL
  Mono: 2.2%
  PT: 14 s
  Plat: 110.2 x10_4/uL
  RBC: 719 x10_4/ul
  Ret: 2%
  WBC: 69.4 x10_2/uL
  LIVER: 13.8 g
  ALP: 1503.2 IU/L
  ALT: 40.6 IU/L
  AST: 50.6 IU/L
  BUN: 14.8 mg/dL
  CRE: 0.2 mg/dL
  Ca: 10.8 mg/dL
  Cl: 105.2 meq/L
  DBIL: 0.062 mg/dL
  IP: 4.9 mg/dL
  K: 3.9 meq/L
  LDH: 51.4 IU/L
  Na: 143.6 meq/L
  PL: 134 mg/dL
  RALB: 3.1 g/dL
  TBIL: 0.1 mg/dL
  TC: 46.8 mg/dL
  TG: 59.2 mg/dL
  TP: 6.9 g/dL
  gamma-GTP: 9.8 IU/L
[6]
  KIDNEY_L: 1 g
  KIDNEY_R: 1 g
  KIDNEY_TOTAL: 2 g
[7]
  KIDNEY_L: 1 g
  KIDNEY_R: 1 g
[8]
  TERMINAL_BW: 202.8 g
  APTT: 17.7 s
  Bas: 0.2%
  Eos: 1%
  Fbg: 289.4 mg/dL
  Hb: 13.2 g/dL
  Ht: 38.8%
  Lym: 81.8%
  MCHC: 34.2%
  MCV: 62.2 fL
  Mono: 4.8%
  Neu: 12%
  Plat: 114.3 x10_4/uL
  RBC: 623.8 x10_4/ul
  Ret: 4.8%
  WBC: 91.7 x10_2/uL
  LIVER: 13.9 g
  ALP: 2718.6 IU/L
  ALT: 40.8 IU/L
  AST: 63 IU/L
  BUN: 9.4 mg/dL
  CRE: 0.2 mg/dL
  Ca: 10.3 mg/dL
  Cl: 107.8 meq/L
  DBIL: 0.044 mg/dL
  IP: 7.8 mg/dL
  K: 4.3 meq/L
  LDH: 76.8 IU/L
  PL: 65.8 mg/dL
  RALB: 2.5 g/dL
  TBIL: 0.082 mg/dL
  TC: 23.2 mg/dL
  TG: 30.2 mg/dL
  TP: 5.3 g/dL
  gamma-GTP: 1 IU/L
[9]
  KIDNEY_L: 1 g
  KIDNEY_R: 1 g
[10]
  TERMINAL_BW: 202.6 g
  APTT: 20.6 s
  Bas: 0%
  Eos: 1%
  Fbg: 254 mg/dL
  Hb: 13.9 g/dL
  Ht: 39%
  Lym: 78.2%
  MCH: 20.6 pg
  MCHC: 35.7%
  MCV: 57.8 fL
  Mono: 2.6%
  PT: 14 s
  Plat: 122.3 x10_4/uL
  RBC: 675.2 x10_4/ul
  Ret: 0.9%
  WBC: 71.4 x10_2/uL
  LIVER: 14.2 g
  ALP: 2093.8 IU/L
  AST: 58.4 IU/L
  BUN: 15.4 mg/dL
  CRE: 0.2 mg/dL
  Cl: 104.6 meq/L
  DBIL: 0.074 mg/dL
  IP: 6.4 mg/dL
  LDH: 125.2 IU/L
  Na: 144.8 meq/L
  PL: 89.8 mg/dL
  RALB: 3.1 g/dL
  TBIL: 0.1 mg/dL
  TC: 28.4 mg/dL
  TG: 30.4 mg/dL
  TP: 7 g/dL
  gamma-GTP: 12.2 IU/L
[11]
  TERMINAL_BW: 211.1 g
  APTT: 24.9 s
  Bas: 0%
  Eos: 0.6%
  Fbg: 258.6 mg/dL
  Hb: 12.4 g/dL
  Ht: 33.9%
  Lym: 78.6%
  MCH: 19 pg
  MCHC: 36.6%
  MCV: 51.7 fL
  Mono: 2%
  Neu: 18.2%
  Plat: 120.4 x10_4/uL
  RBC: 656.4 x10_4/ul
  Ret: 1.9%
  WBC: 61.3 x10_2/uL
  LIVER: 15.1 g
  ALP: 1817.4 IU/L
  ALT: 61.6 IU/L
  BUN: 16.4 mg/dL
  CRE: 0.2 mg/dL
  Cl: 104.6 meq/L
  DBIL: 0.1 mg/dL
  IP: 5.8 mg/dL
  LDH: 94.4 IU/L
  Na: 145 meq/L
  PL: 118.6 mg/dL
  RALB: 3.3 g/dL
  TBIL: 0.3 mg/dL
  TC: 40 mg/dL
  TG: 60.2 mg/dL
  TP: 7.3 g/dL
  gamma-GTP: 19 IU/L
[12]
  KIDNEY_L: 1 g
  KIDNEY_R: 1 g
[13]
  KIDNEY_L: 1 g
  KIDNEY_R: 1 g
